# Measurements reported in patent publication US20230310462A1, “COMBINATION DRUG FOR THE CONTROL AND MANAGEMENT OF TYPE 2 DIABETES MELLITUS” (LABORATORIOS SILANES S.A. DE C.V., priority 2020, published 2023).
# Assays:
# [1] = Single-dose crossover comparative bioavailability study, fixed combination vs co-administered reference drugs, plasma HPLC-MS/MS
# Protocol: In another embodiment of the invention, bioavailability tests are performed to determine whether there are differences in the magnitude and rate of absorption between the test product of this invention (fixed dose combination) and co-administration of reference drugs that impact the bioavailability of the drugs upon administration.
# On the other hand, the determination of the pharmacokinetic parameters of Cmax and area under the plasma concentration curve with respect to time (ABC0-t) are determined, which allow characterizing the bioavailability of the drug of this invention from its dosage form, in terms of speed and degree of respective absorption. Therefore, the purpose of the bioavailability tests is to determine if there are differences in the magnitude and speed of absorption between the test product of the present invention (fixed combination) and the co-administration of reference drugs that impact the bioavailability of the drugs when administered under fasting conditions.
# A total of 44 healthy volunteers (27 men and 17 women) were randomized in the study. […] After a period of 7 half-lives, the pharmacokinetic effect of washout can be completely disregarded. Each volunteer received the treatments under study according to randomization.
# The pharmacokinetic parameters were determined through independent model methods. Descriptive statistics are presented below in Tables 19-21.
# [2] = according to biopharmaceutical classification; cited from earlier work
# [3] = reported, in Mexican population; cited from earlier work
SMILES,"Intrasubject Variability Coefficient, Ln (Cmax) ([1]; both, human, in vivo)","Intrasubject Variability Coefficient, Ln (ABC0-t) ([1]; vildagliptin pharmacokinetic parameter)",solubility [2],"Intrasubject Variability Coefficient, Ln (ABC0-t) of glimepiride ([1]; both, human, in vivo)","Intrasubject Variability Coefficient, Ln (Cmax) of glimepiride ([1]; both, human, in vivo)",elimination half-life [3]
N#C[C@@H]1CCCN1C(=O)CN[C@@]12C[C@@H]3C[C@@H](CC(O)(C3)C1)C2 [vildagliptin],19.12%,9.14%,high,,,
CCC1=C(C)CN(C(=O)NCCc2ccc(S(=O)(=O)NC(=O)N[C@H]3CC[C@H](C)CC3)cc2)C1=O [glimepiride],,,low,15.58%,28.21%,7.5 ± 4 h
